Assay results taken from ChEMBL document CHEMBL1201862, “PubChem BioAssay data set” (2004).
Activity calls are given as the source filed them. Unless noted, the calls are words filed in the database; no cut-off is given here.

Columns and labels:
DNA topoisomerase = DNA topoisomerase (Yersinia pestis, UniProt A0A2S9PM60); test: Yersinia topoisomerase I cleavage product accumulation – biochemical, cherry-pick, dose response (AID 588525)
[1] = molecular target: Potassium voltage-gated channel subfamily KQT member 2 (Rattus norvegicus, UniProt O88943); test: Mode of action assay-Dose response assay for compounds that activate KCNQ2 potassium channels on automated patch clamp. [Related pubchem assays (depositor defined):AID2239, AID2258, AID2287, AID493113]; assay type: functional
Chain of Potassium voltage-gated channel subfamily KQT member 2 (O88943 whole entry): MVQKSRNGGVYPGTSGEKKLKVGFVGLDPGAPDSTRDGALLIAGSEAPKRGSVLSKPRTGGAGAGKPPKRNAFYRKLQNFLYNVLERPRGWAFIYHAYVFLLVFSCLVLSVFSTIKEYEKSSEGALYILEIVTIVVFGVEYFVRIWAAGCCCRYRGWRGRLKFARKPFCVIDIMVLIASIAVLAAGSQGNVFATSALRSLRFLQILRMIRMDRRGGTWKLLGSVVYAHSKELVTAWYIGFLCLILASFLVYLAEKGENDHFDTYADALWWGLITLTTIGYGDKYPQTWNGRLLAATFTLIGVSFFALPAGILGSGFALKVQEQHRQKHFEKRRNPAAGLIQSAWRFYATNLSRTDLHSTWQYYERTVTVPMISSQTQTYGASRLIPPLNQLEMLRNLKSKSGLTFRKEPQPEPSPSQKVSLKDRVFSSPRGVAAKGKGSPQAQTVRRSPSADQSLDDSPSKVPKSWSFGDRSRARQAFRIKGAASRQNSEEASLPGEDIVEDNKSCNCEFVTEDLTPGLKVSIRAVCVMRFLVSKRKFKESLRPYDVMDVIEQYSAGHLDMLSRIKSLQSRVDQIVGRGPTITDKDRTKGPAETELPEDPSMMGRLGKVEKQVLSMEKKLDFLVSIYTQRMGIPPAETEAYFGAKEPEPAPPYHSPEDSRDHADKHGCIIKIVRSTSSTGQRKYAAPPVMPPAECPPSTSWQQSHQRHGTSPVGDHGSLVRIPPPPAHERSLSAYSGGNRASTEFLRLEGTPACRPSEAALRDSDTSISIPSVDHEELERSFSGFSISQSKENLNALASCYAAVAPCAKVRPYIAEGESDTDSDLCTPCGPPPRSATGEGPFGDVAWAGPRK

[2] = molecular target: Potassium voltage-gated channel subfamily KQT member 4 (Homo sapiens, UniProt P56696); test: activation of KCNQ4 potassium current – automated patch clamp, CHO cells, selectivity assay for KCNQ2 activator project, dose response (AID 493043); assay type: functional, cell-based
Chain of Potassium voltage-gated channel subfamily KQT member 4 (P56696 whole entry): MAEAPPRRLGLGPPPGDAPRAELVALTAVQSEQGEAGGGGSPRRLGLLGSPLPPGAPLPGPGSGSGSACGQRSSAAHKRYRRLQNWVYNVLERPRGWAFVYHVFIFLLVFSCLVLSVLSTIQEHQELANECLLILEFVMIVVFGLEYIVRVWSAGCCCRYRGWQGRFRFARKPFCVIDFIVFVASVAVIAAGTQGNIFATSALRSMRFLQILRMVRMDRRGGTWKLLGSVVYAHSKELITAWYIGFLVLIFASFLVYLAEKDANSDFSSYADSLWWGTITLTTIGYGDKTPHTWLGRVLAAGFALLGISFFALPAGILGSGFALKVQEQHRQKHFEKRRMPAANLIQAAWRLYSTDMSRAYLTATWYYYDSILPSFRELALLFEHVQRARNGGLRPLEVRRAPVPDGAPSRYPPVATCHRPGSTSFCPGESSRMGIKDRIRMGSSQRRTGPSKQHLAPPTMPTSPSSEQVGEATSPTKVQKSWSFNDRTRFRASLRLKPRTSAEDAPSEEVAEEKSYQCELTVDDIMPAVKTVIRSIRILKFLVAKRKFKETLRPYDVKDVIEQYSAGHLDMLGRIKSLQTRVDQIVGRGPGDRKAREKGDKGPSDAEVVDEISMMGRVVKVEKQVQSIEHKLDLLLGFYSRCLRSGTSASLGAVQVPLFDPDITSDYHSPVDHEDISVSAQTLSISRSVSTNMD

[3] = molecular target: Potassium voltage-gated channel subfamily KQT member 2/member 3 (Rattus norvegicus, UniProt O88943+O88944); test: Mode of action assay-Dose response assay for KCNQ2 activators in the KCNQ2/KCNQ3 co-expressing cells on automated patch clamp. [Related pubchem assays (depositor defined):AID2239, AID2258, AID2287]; assay type: functional
Chain of Potassium voltage-gated channel subfamily KQT member 2/member 3 (O88943 whole entry): as the sequence (O88943 whole entry) above
Chain of Potassium voltage-gated channel subfamily KQT member 2/member 3 (O88944 whole entry): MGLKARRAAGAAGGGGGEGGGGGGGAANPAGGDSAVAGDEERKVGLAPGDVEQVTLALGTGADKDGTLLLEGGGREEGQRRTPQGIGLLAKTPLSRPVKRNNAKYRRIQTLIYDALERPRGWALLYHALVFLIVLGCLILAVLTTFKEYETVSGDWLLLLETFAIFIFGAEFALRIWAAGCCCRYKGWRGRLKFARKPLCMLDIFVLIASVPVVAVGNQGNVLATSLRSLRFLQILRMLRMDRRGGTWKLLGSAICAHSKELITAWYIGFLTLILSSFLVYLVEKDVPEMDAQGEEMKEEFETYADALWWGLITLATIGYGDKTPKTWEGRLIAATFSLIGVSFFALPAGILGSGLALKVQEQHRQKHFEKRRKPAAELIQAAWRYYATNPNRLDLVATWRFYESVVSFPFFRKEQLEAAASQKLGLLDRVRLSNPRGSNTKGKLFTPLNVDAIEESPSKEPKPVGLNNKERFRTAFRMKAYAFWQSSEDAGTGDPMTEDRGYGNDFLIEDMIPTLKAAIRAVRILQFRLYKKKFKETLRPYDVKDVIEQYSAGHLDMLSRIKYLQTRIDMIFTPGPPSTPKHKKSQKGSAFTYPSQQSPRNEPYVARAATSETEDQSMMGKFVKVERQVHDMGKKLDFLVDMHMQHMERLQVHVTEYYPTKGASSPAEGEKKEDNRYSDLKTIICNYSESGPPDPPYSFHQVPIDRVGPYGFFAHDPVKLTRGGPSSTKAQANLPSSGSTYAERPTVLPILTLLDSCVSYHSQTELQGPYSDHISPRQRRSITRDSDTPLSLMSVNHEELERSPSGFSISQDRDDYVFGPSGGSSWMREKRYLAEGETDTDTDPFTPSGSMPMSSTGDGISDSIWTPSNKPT

[4] = molecular target: Luciferin 4-monooxygenase (Photinus pyralis, UniProt P08659); test: inhibition of purified Photinus pyralis luciferase – biochemical, dry powder samples, plate reader, dose response (AID 588451)
Chain of Luciferin 4-monooxygenase (P08659 whole entry): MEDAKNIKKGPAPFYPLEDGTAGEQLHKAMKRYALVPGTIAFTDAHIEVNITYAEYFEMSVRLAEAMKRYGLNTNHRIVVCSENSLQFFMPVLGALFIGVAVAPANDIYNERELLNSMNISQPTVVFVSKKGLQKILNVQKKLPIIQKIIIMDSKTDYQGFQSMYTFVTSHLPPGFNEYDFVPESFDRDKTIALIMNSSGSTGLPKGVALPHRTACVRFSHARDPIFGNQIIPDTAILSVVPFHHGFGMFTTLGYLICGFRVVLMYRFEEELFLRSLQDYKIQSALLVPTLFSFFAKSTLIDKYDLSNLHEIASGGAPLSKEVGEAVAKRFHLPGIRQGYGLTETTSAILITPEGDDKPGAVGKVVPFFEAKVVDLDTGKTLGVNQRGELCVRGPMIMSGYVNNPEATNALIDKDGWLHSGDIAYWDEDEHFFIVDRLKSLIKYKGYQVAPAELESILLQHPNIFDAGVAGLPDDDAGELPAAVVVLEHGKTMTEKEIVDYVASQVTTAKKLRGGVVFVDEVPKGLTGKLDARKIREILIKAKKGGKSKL

H4 [5] = test: inhibitors of control reporter signal in H4 cells – cell-based, plate reader, dry powder samples, counter-screen for prion reporter project, dose response (AID 540255); assay type: functional; details: Homo sapiens
H4 [6] = test: Amyloid Precursor 5' UTR neuroblastoma cell reporter line Measured in Cell-Based System Using Plate Reader - 2078-04_Inhibitor_Dose_DryPowder_Activity. [Related pubchem assays (depositor defined):AID488894]; assay type: functional; details: Homo sapiens
H4 [7] = test: Inhibitors of Prion Protein 5' UTR mRNA Measured in Cell-Based System Using Plate Reader - 2078-01_Inhibitor_Dose_DryPowder_Activity. [Related pubchem assays (depositor defined):AID488894]; assay type: functional; details: Homo sapiens
Cysteine protease ATG4B = Cysteine protease ATG4B (Homo sapiens, UniProt Q9Y4P1); assay type: functional;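 further: Fluorescence-based dose-response confirmation assay measuring inhibition of ATG4B activity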
Chain of Cysteine protease ATG4B (Q9Y4P1 whole entry): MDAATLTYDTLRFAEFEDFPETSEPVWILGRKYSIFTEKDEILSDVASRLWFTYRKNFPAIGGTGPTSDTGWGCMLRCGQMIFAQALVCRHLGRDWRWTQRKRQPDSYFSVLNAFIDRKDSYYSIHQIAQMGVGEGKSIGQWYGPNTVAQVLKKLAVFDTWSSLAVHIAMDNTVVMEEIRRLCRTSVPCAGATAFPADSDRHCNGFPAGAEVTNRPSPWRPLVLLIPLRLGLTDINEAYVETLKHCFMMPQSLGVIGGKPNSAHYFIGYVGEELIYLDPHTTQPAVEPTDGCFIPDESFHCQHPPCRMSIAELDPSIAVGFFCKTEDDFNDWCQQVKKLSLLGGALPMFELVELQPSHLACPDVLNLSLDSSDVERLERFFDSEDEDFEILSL

Phospholipase A2 = Phospholipase A2 (Homo sapiens, UniProt P04054); assay type: functional;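 further: confirmatory dose-response counterscreen on phospholipase A2, testing hits that came from an ultra-high-throughput screen for ATG4B inhibitors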
Chain of Phospholipase A2 (P04054 whole entry): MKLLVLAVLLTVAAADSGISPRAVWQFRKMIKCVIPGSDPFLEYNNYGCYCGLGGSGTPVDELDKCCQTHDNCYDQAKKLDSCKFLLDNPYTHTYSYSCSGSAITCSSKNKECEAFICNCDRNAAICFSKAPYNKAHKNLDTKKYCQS

Chain of DNA topoisomerase (A0A2S9PM60 whole entry): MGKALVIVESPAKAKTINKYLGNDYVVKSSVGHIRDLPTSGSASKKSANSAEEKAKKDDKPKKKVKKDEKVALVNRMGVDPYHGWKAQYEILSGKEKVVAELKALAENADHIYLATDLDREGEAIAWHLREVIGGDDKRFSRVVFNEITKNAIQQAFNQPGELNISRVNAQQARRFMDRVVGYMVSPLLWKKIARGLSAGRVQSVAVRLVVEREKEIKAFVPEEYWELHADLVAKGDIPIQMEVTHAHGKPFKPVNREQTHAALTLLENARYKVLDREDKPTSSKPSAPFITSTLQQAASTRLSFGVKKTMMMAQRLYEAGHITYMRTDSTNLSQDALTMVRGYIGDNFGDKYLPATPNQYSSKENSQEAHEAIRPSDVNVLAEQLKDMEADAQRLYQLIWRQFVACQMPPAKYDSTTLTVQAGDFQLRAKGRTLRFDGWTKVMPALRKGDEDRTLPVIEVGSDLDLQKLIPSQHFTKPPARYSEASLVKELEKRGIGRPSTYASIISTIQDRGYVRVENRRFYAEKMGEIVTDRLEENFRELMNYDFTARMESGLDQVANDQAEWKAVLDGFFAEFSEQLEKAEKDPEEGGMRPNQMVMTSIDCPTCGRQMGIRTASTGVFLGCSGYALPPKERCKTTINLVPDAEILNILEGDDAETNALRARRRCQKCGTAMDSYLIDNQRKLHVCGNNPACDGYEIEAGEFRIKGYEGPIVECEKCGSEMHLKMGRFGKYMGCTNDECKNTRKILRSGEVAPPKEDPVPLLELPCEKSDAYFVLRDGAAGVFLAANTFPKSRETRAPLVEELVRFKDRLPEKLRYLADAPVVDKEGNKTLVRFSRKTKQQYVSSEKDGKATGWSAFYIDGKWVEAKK

CC(=O)c1cccc(NC(=O)CCc2nnc3ccc(NCc4ccc5c(c4)OCO5)nn23)c1
AC50 (DNA topoisomerase): 7.46 µM (active)

Cc1cccc(C)c1NC(=O)C1CC2CCC1C2 (stereo not given)
EC50 [1]: 3.24 µM (active) | EC50 [2]: 13.4 µM (active) | EC50 [3]: 4.66 µM (active)

CC1CCCCN1c1ncnc2c1cnn2-c1ccc(Cl)cc1 (stereo not given)
AC50 [4]: 4.19 µM (active) | AC50 (H4 [5]): 74 nM (active) | AC50 (H4 [6]): 8.38 nM (active) | AC50 (H4 [7]): 18 nM (active)

O=C(CC1SC(N/N=C/c2cccs2)=NC1=O)Nc1ccc(Cl)c(Cl)c1 (stereo not given)
IC50 (Cysteine protease ATG4B): 13.8 µM (active) | IC50 (Phospholipase A2): 4.25 µM (active)
